Results published in PubChem BioAssay (NCI).
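These data come from cells grown in 96-well plates and exposed to compound for 48 hours at five concentrations. Definition used: TGI = concentration required for complete inhibition of growth.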

Experiments:
Test in all cases: NCI-60 cell line screen, 48 h
SF-295 CNS = test system: SF-295 CNS
CCRF-CEM leukemia = test system: CCRF-CEM leukemia
RPMI-8226 leukemia = test system: RPMI-8226 leukemia
SNB-19 CNS = test system: SNB-19 CNS
NCI-H460 lung = test system: NCI-H460 lung
HOP-92 NSCLC = test system: HOP-92 NSCLC
U251 CNS = test system: U251 CNS
SW-620 colon = test system: SW-620 colon
RXF 393 renal = test system: RXF 393 renal
786-0 renal = test system: 786-0 renal
SF-539 CNS = test system: SF-539 CNS
SK-OV-3 ovarian = test system: SK-OV-3 ovarian
MOLT-4 leukemia = test system: MOLT-4 leukemia
M14 melanoma = test system: M14 melanoma
IGROV1 ovarian = test system: IGROV1 ovarian
DLD-1 colon = test system: DLD-1 colon
EKVX NSCLC = test system: EKVX NSCLC
SNB-75 CNS = test system: SNB-75 CNS
K-562 leukemia = test system: K-562 leukemia
HCT-116 colon = test system: HCT-116 colon
SNB-78 CNS = test system: SNB-78 CNS
HT29 colon = test system: HT29 colon
HOP-62 NSCLC = test system: HOP-62 NSCLC
A549 NSCLC = test system: A549 NSCLC
ACHN renal = test system: ACHN renal
SN12C renal = test system: SN12C renal
SK-MEL-5 melanoma = test system: SK-MEL-5 melanoma
A498 renal = test system: A498 renal
HCT-15 colon = test system: HCT-15 colon
HL-60(TB) leukemia = test system: HL-60(TB) leukemia
COLO 205 colon = test system: COLO 205 colon
KM20L2 colon = test system: KM20L2 colon
TK-10 renal = test system: TK-10 renal
OVCAR-3 ovarian = test system: OVCAR-3 ovarian
LOX IMVI melanoma = test system: LOX IMVI melanoma
CAKI-1 renal = test system: CAKI-1 renal
NCI-H226 lung = test system: NCI-H226 lung
SK-MEL-2 melanoma = test system: SK-MEL-2 melanoma
OVCAR-5 ovarian = test system: OVCAR-5 ovarian
UO-31 renal = test system: UO-31 renal
UACC-62 melanoma = test system: UACC-62 melanoma
HCC-2998 colon = test system: HCC-2998 colon
SK-MEL-28 melanoma = test system: SK-MEL-28 melanoma
UACC-257 melanoma = test system: UACC-257 melanoma
NCI-H23 lung = test system: NCI-H23 lung
LXFL 529 NSCLC = test system: LXFL 529 NSCLC
OVCAR-8 ovarian = test system: OVCAR-8 ovarian
MALME-3M melanoma = test system: MALME-3M melanoma
KM12 colon = test system: KM12 colon
DMS 114 small cell lung = test system: DMS 114 small cell lung
DMS 273 small cell lung = test system: DMS 273 small cell lung
SF-268 CNS = test system: SF-268 CNS
M19-MEL melanoma = test system: M19-MEL melanoma
OVCAR-4 ovarian = test system: OVCAR-4 ovarian
HOP-18 NSCLC = test system: HOP-18 NSCLC

Measured: TGI

COC(=O)CC(CC(=O)C(=O)OC)C(=O)OC (configuration not stated)
> 100 µM: SF-295 CNS | CCRF-CEM leukemia | RPMI-8226 leukemia | SNB-19 CNS | NCI-H460 lung | HOP-92 NSCLC | U251 CNS | SW-620 colon | RXF 393 renal | 786-0 renal | SF-539 CNS | SK-OV-3 ovarian | MOLT-4 leukemia | M14 melanoma | IGROV1 ovarian | DLD-1 colon | EKVX NSCLC | SNB-75 CNS | K-562 leukemia | HCT-116 colon | SNB-78 CNS | HT29 colon | HOP-62 NSCLC | A549 NSCLC | ACHN renal | SN12C renal | SK-MEL-5 melanoma | A498 renal | HCT-15 colon | HL-60(TB) leukemia | COLO 205 colon | KM20L2 colon | TK-10 renal | OVCAR-3 ovarian | LOX IMVI melanoma | CAKI-1 renal | NCI-H226 lung | SK-MEL-2 melanoma | OVCAR-5 ovarian | UO-31 renal | UACC-62 melanoma | HCC-2998 colon | SK-MEL-28 melanoma | UACC-257 melanoma | NCI-H23 lung | LXFL 529 NSCLC | OVCAR-8 ovarian | MALME-3M melanoma | KM12 colon

COc1ccccc1NS(=O)(=O)c1cc(C(C)(C)C)ccc1OCCOc1ccc(C(C)(C)C)cc1S(=O)(=O)Nc1ccccc1OC
> 100 µM: SF-295 CNS | CCRF-CEM leukemia | RPMI-8226 leukemia | SNB-19 CNS | NCI-H460 lung | HOP-92 NSCLC | U251 CNS | SW-620 colon | DMS 114 small cell lung | RXF 393 renal | 786-0 renal | SF-539 CNS | SK-OV-3 ovarian | MOLT-4 leukemia | M14 melanoma | IGROV1 ovarian | DLD-1 colon | DMS 273 small cell lung | EKVX NSCLC | SNB-75 CNS | K-562 leukemia | HCT-116 colon | SNB-78 CNS | HT29 colon | HOP-62 NSCLC | A549 NSCLC | ACHN renal | SN12C renal | SK-MEL-5 melanoma | A498 renal | HCT-15 colon | HL-60(TB) leukemia | COLO 205 colon | TK-10 renal | SF-268 CNS | OVCAR-3 ovarian | LOX IMVI melanoma | M19-MEL melanoma | CAKI-1 renal | NCI-H226 lung | SK-MEL-2 melanoma | OVCAR-5 ovarian | UO-31 renal | UACC-62 melanoma | HCC-2998 colon | SK-MEL-28 melanoma | UACC-257 melanoma | NCI-H23 lung | OVCAR-4 ovarian | HOP-18 NSCLC | OVCAR-8 ovarian | MALME-3M melanoma | KM12 colon
